Test results reported in patent publication US20220395496A1 (Hoffmann-La Roche Inc., priority 2019, published 2022).

The compounds below were run against T1, human TLR7 (Homo sapiens, UniProt Q9NYK1) (assay: HEK293-Blue-hTLR-7 cells assay (SEAP reporter, R848 stimulation)). Conditions: HEK293-Blue-hTLR7 cells, R848, 20 hrs; lowest tested concentration 0.0032.
T1 sequence (Q9NYK1 27-1049): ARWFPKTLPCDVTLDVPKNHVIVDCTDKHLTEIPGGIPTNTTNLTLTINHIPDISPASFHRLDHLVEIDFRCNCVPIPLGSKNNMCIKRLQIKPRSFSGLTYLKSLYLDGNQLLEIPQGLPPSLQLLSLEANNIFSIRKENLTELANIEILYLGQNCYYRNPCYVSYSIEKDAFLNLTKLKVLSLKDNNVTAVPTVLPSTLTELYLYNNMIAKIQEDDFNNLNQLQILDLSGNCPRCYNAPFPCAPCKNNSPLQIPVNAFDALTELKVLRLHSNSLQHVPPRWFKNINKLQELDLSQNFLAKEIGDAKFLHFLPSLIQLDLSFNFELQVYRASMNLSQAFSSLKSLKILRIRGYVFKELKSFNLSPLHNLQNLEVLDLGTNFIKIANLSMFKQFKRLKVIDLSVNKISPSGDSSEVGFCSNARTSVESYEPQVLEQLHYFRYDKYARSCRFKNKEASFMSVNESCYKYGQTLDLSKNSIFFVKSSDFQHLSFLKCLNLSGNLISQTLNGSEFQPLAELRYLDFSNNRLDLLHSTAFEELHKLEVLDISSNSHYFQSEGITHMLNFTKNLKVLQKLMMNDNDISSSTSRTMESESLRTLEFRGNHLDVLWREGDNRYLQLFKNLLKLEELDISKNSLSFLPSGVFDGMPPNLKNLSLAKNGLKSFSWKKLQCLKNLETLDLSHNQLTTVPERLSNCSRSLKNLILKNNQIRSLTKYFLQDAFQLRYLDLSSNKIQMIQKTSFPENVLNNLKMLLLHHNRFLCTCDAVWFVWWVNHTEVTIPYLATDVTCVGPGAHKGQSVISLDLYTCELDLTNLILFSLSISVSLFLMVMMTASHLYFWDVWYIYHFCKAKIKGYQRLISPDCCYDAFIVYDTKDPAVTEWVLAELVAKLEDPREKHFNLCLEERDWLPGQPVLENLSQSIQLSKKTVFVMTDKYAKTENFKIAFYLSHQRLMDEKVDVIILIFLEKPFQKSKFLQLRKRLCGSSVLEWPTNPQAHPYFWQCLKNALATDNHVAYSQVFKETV
Format: cell-based
Experimental: The following tests were carried out in order to determine the activity of the compounds of this invention in HEK293-Blue-hTLR-7/8/9 cells assay.
HEK293-Blue-hTLR-7 Cells Assay:
A stable HEK293-Blue-hTLR-7 cell line was purchased from InvivoGen (Cat. #: hkb-htlr7, San Diego, Calif., USA). These cells were originally designed for studying the stimulation of human TLR7 by monitoring the activation of NF-κB. A SEAP (secreted embryonic alkaline phosphatase) reporter gene was placed under the control of the IFN-β minimal promoter fused to five NF-κB and AP-1-binding sites. The SEAP was induced by activating NF-κB and AP-1 via stimulating HEK-Blue hTLR7 cells with TLR7 ligands. Therefore the reporter expression was declined by TLR7 antagonist under the stimulation of a ligand, such as R848 (Resiquimod), for incubation of 20 hrs. The cell culture supernatant SEAP reporter activity was determined using QUANTI-Blue™ kit (Cat. #: rep-qb1, Invivogen, San Diego, Calif., USA) at a wavelength of 640 nm, a detection medium that turns purple or blue in the presence of alkaline phosphatase.
HEK293-Blue-hTLR7 cells were incubated at a density of 250,000˜450,000 cells/mL in a volume of 170 μL in a 96-well plate in Dulbecco's Modified Eagle's medium (DMEM) containing 4.5 g/L glucose, 50 U/mL penicillin, […], […], 2 mM L-glutamine, 10% (v/v) heat-inactivated fetal bovine serum with addition of 20 μL test compound in a serial dilution in the presence of final DMSO at 1% and 10 μL of 20 uM R848 in above DMEM, perform incubation under 37° C. in a CO2 incubator for 20 hrs. Then 20 μL of the supernatant from each well was incubated with 180 μL Quanti-blue substrate solution at 37° C. for 2 hrs and the absorbance was read at 620-655 nm using a spectrophotometer. The signalling pathway that TLR7 activation leads to downstream NF-κB activation has been widely accepted, and therefore similar reporter assay was modified for evaluating TLR7 antagonist.
Work on `C[C@H]1C[C@@H](N2CCc3cc(N4CCNCC4)ccc3C2)CN(c2ccc(C#N)c3ncccc23)C1` (relative stereo) [Example 24, 5-[cis-3-methyl-5-(6-piperazin-1-yl-3,4-dihydro-1H-isoquinolin-2-yl)-1-piperidyl]quinoline-8-carbonitrile] yielded an IC50 of 0.052 µM. In the case of `C[C@H]1C[C@@H](NCc2ccc(N3CCNCC3)cc2)CN(c2ccc(C#N)c3nccnc23)C1` [Example 3, 8-[(3S,5R)-3-methyl-5-[(4-piperazin-1-ylphenyl)methylamino]-1-piperidyl]quinoxaline-5-carbonitrile], the IC50 is reported as 0.03 µM. `C[C@H]1C[C@@H](NCc2ccc(N3CCNCC3)cc2F)CN(c2ccc(C#N)c3ncccc23)C1` [Example 4, 5-[(3R,58)-3-[(2-fluoro-4-piperazin-1-yl-phenyl)methylamino]-5-methyl-1-piperidyl]quinoline-8-carbonitrile] was tested, and the IC50 was 0.013 µM. Work on `C[C@H]1C[C@@H](NCc2ccc(N3CCNCC3)cn2)CN(c2ccc(C#N)c3ncccc23)C1` [Example 5, 5-[(3S,5R)-3-methyl-5-[(5-piperazin-1-yl-2-pyridyl)methylamino]-1-piperidyl]quinoline-8-carbonitrile] yielded an IC50 of 0.017 µM. Work on `C[C@H]1C[C@@H](NCc2cccc(N3CCN(C)CC3)c2)CN(c2ccc(C#N)c3ncccc23)C1` [Example 6, 5-[(3S,5R)-3-methyl-5-[[3-(4-methylpiperazin-1-yl)phenyl]methylamino]-1-piperidyl]quinoline-8-carbonitrile] yielded an IC50 of 0.042 µM. For `C[C@H]1C[C@@H](NCc2ccc(N3CCN(C)CC3)cc2)CN(c2ccc(C#N)c3ncccc23)C1` [Example 7, 5-[(3S,5R)-3-methyl-5-[[4-(4-methylpiperazin-1-yl)phenyl]methylamino]-1-piperidyl]quinoline-8-carbonitrile], the IC50 was 0.016 µM. Work on `C[C@H]1C[C@@H](NCc2cccc(N3CCNCC3)c2)CN(c2ccc(C#N)c3ncccc23)C1` [Example 8, 5-[(3S,5R)-3-methyl-5-[(3-piperazin-1-ylphenyl)methylamino]-1-piperidyl]quinoline-8-carbonitrile] yielded an IC50 of 0.039 µM. Work on `C[C@H]1C[C@@H](N(C)Cc2ccc(N3CCNCC3)cc2)CN(c2ccc(C#N)c3ncccc23)C1` [Example 9, 5-[(3S,5R)-3-methyl-5-[methyl-[(4-piperazin-1-ylphenyl)methyl]amino]-1-piperidyl]quinoline-8-carbonitrile] yielded an IC50 of 0.015 µM. For `C[C@H]1C[C@@H](NCc2ccc3c(c2)CCNC3)CN(c2ccc(C#N)c3ncccc23)C1` [Example 11, 5-[(3S,5R)-3-methyl-5-(1,2,3,4-tetrahydroisoquinolin-6-ylmethylamino)-1-piperidyl]quinoline-8-carbonitrile], the IC50 was 0.015 µM. With `C[C@H]1C[C@@H](NCc2ccc(N3CCC(N)C3)cc2)CN(c2ccc(C#N)c3ncccc23)C1` (stereo partly drawn) [Example 13, 5-[(3R,5S)-3-[[4-(3-aminopyrrolidin-1-yl)phenyl]methylamino]-5-methyl-1-piperidyl]quinoline-8-carbonitrile] the IC50 was 0.019 µM. `Cc1cc(-c2ccc(CN[C@@H]3C[C@H](C)CN(c4ccc(C#N)c5ncccc45)C3)cc2)cc(C)n1` [Example 15, 5-[(3R,5S)-3-[[4-(2,6-dimethyl-4-pyridyl)phenyl]methylamino]-5-methyl-1-piperidyl]quinoline-8-carbonitrile] was tested, and the IC50 was 0.084 µM. In the case of `C[C@H]1C[C@@H](NCc2cnc(N3CCN(C)CC3)nc2)CN(c2ccc(C#N)c3ncccc23)C1` [Example 16, 5-[(3S,5R)-3-methyl-5-[[2-(4-methylpiperazin-1-yl)pyrimidin-5-yl]methylamino]-1-piperidyl]quinoline-8-carbonitrile], the IC50 is reported as 0.011 µM. `C[C@H]1C[C@@H](NCc2ccc(N3CCN(C)CC3)cn2)CN(c2ccc(C#N)c3ncsc23)C1` [Example 18, 7-[(3S,5R)-3-methyl-5-[[5-(4-methylpiperazin-1-yl)-2-pyridyl]methylamino]-1-piperidyl]-1,3-benzothiazole-4-carbonitrile] gave an IC50 of 0.011 µM. For `C[C@H]1C[C@@H](NCc2ccc(N3CCNCC3)cc2)CN(c2ccc(Cl)c3ncccc23)C1` [Example 22, (3R,5S)-1-(8-chloro-5-quinolyl)-5-methyl-N-[(4-piperazin-1-ylphenyl)methyl]piperidin-3-amine], the IC50 was 0.023 µM. In the case of `C[C@H]1C[C@@H](NCc2ncc(N3CCNCC3)cn2)CN(c2ccc(C#N)c3ncccc23)C1` [Example 25, 5-[(3S,5R)-3-methyl-5-[(5-piperazin-1-ylpyrimidin-2-yl)methylamino]-1-piperidyl]quinoline-8-carbonitrile], the IC50 is reported as 0.015 µM. In the case of `CC(N[C@@H]1C[C@H](C)CN(c2ccc(C#N)c3ncccc23)C1)c1ccc(N2CCNCC2)cc1` (stereo partly drawn) [Example 26, 5-[(3S,5R)-3-methyl-5-[1-(4-piperazin-1-ylphenyl)ethylamino]-1-piperidyl]quinoline-8-carbonitrile], the IC50 is reported as 0.091 µM. With `C[C@H]1C[C@@H](NCc2cnc(N3CCN[C@H](C)C3)nc2)CN(c2ccc(C#N)c3ncccc23)C1` [Example 28, 5-[(3S,5R)-3-methyl-5-[[2-[(3R)-3-methylpiperazin-1-yl]pyrimidin-5-yl]methylamino]-1-piperidyl]quinoline-8-carbonitrile] the IC50 was 0.012 µM. `C[C@H]1C[C@@H](NCc2cnc(N3CCN[C@@H](C)C3)nc2)CN(c2ccc(C#N)c3ncccc23)C1` [Example 29, 5-[(3S,5R)-3-methyl-5-[[2-[(3S)-3-methylpiperazin-1-yl]pyrimidin-5-yl]methylamino]-1-piperidyl]quinoline-8-carbonitrile] gave an IC50 of 0.008 µM. In the case of `C[C@H]1C[C@@H](NCc2ccc3c(n2)CCNC3)CN(c2ccc(C#N)c3ncccc23)C1` [Example 30, 5-[(3S,5R)-3-methyl-5-(5,6,7,8-tetrahydro-1,6-naphthyridin-2-ylmethylamino)-1-piperidyl]quinoline-8-carbonitrile], the IC50 is reported as 0.016 µM. Compound `C[C@H]1C[C@@H](NCc2cnc(N3CCNCC3)cn2)CN(c2ccc(C#N)c3ncccc23)C1` [Example 31, 5-[(3S,5R)-3-methyl-5-[(5-piperazin-1-ylpyrazin-2-yl)methylamino]-1-piperidyl]quinoline-8-carbonitrile] has an IC50 of at most 0.003 µM.
